Experimental data taken from US12010993B2, “Granular agricultural compositions” (OMS Investments, Inc., priority 2020, dated 2024).

Legend:
[1] = system: perennial ryegrass; test: Turfgrass greening vs commercial greening products, perennial ryegrass, Table 33; format: in vivo
Procedure: (§1) To further explain the positive greening response of Formulation 2, two additional trials were conducted on Kentucky bluegrass and perennial ryegrass. The additional trials compared Formulations 2 and 5 with other commercial greening products at equivalent nitrogen rates to better understand the speed of the greening response as well as the darkness of the greening response. Application rates are described in Table 31. The commercial greening products include Green Max™ Lawn Food and Turf Builder® Lawn Food available from the Scotts Company LLC (Marysville, OH). Urea was also evaluated.
(§2) For each trial, preceding application, mowing was withheld for 24 to 48 hours to ensure sufficient leaf area was present for formulation absorption. The experimental unit for turfgrass color response testing was a 3′×3′ plot. The research area for turfgrass color response contained minimal weed pressure so that product impact could be accurately and consistently assessed. Plots were separated on each side by a 2 ft. untreated buffer strip.
(§3) Formulations 2 and 5 were applied early in the morning to dew-laden turf. Green Max™ Lawn Food, Turf Builder® Lawn Food, and urea were all applied to dry turf once the morning dew had dissipated. All treatments were applied using a shaker jar and spreader box to ensure even particle coverage over the plot. Treatments applied to dry turf were watered in immediately after application with 0.18″ of water and wet-foliage applied treatments remained on the leaf surface for 24 hours prior to being watered in with 0.18″ of water. This trial design allowed for comparative evaluation of the response of turf to foliar nitrogen and iron compared to foliar nitrogen; soil applied nitrogen; and soil applied nitrogen and iron at two different rates of iron application. Turfgrass color was rated visually using the National Turfgrass Evaluation Program color rating scale (1-9). Treatments were rated for color 3 and 6 hours after application, and then 1, 3, 7, 14, and 20 days after application. Table 32 depicts testing of Kentucky bluegrass while Table 33 depicts testing of Perennial ryegrass.

[2] = system: Kentucky bluegrass; test: Turfgrass greening vs commercial greening products, Kentucky bluegrass, Table 32; format: in vivo
Procedure: as §1, §2, §3

SMILES: NC(N)=O [Urea]
- Turf Color (1-9) ([1]; 1 D after initial application): 3.50
- Turf Color (1-9) ([1]; 3 D after initial application): 3.13
- Turf Color (1-9) ([1]; 7 D after initial application): 4.63
- Turf Color (1-9) ([1]; 14 D after initial application): 4.88
- Turf Color (1-9) ([1]; 20 D after initial application): 6.13
- Turf Color (1-9) ([1]; 3 hr after initial application): 3.13
- Turf Color (1-9) ([1]; 6 hr after initial application): 3.50
- Turf Color (1-9) ([2]; 1 D after initial application): 3.88
- Turf Color (1-9) ([2]; 3 D after initial application): 4.00
- Turf Color (1-9) ([2]; 7 D after initial application): 4.63
- Turf Color (1-9) ([2]; 14 D after initial application): 5.25
- Turf Color (1-9) ([2]; 20 D after initial application): 6.25
- Turf Color (1-9) ([2]; 3 hr after initial application): 3.75
- Turf Color (1-9) ([2]; 6 hr after initial application): 3.75
